Assay results as given in patent US11596639B2, “Substituted indole Mcl-1 inhibitors” (Vanderbilt University, priority 2016, dated 2023).
Read-outs that look alike come from different tables or passages of the source.

Tests used:
[1] = test system: H929 human cancer cell lines; assay: Cellular viability / proliferation (Cell TiterGlo, 72 h); assay type: cell-based
Outline: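 H929 cells plated at 1,000/well in 10% FBS medium received a 2-fold serial compound dilution (top 50 μM, DMSO <1%) 24 h later. After 72 h, viability was read by CellTiter-Glo luminescence. IC50 came from a four-parameter fit.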

Mcl-1 = Mcl-1 (Homo sapiens (Human), UniProt Q07820); assay: Fluorescence polarization anisotropy (FPA) competition assay, FITC-Bak or FITC-Bim BH3 peptide; assay type: binding; settings: read-out: Ki for Inhibition of Mcl-1 by FPA assay
[2] = Homo sapiens, NCI-H929, 72 h, read-out: GI50 on cellular proliferation of H929 human cancer cell lines, H929 cells, 72 h, Cell TiterGlo, 10% FBS
[3] = H929 cells, 72 h, Cell TiterGlo, 10% FBS, read-out: GI50 on cellular proliferation of H929 human cancer cell lines

Sequence of Mcl-1 (Q07820 172-327): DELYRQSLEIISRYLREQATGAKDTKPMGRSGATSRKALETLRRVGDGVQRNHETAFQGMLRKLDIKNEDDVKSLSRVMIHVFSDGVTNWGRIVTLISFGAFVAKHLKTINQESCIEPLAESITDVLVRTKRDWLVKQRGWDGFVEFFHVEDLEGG

Compound | GI50 [1, 2] | Ki (Mcl-1) | GI50 [1, 3] | GI50 ([1]; read-out: GI50 on cellular proliferation of H929 human cancer cell lines, H929 cells, 72 h, Cell TiterGlo, 10% FBS)
Cc1cc(N2C[C@@H](C)n3c(c(CCCOc4cc(C)c(Cl)c(C)c4)c4ccc(Cl)c(-c5c(C)nn(C)c5C)c43)C2=O)c2c(c1)cc(C(N)=O)n2Cc1ccccn1 [Example 415, (R)-7-(7-Chloro-10-(3-(4-chloro-3,5-dimethylphenoxy)propyl)-4-methyl-1-oxo-6-(1,3,5-trimethyl-1H-pyrazol-4-yl)-3,4-dihydropyrazino[1,2-a]indol-2(1H)-yl)-5-methyl-1-(pyridin-2-ylmethyl)-1H-indole-2-carboxamide] | 510 nM | 3.4 nM |  | 
Cc1cc(OCCCc2c3n(c4c(-c5c(C)n[nH]c5C)c(Cl)ccc24)[C@H](C)CN(c2cn(C)c4c(C)cc(C(=O)O)cc24)C3=O)cc(C)c1Cl [Example 160, (R)-3-(7-chloro-10-(3-(4-chloro-3,5-dimethylphenoxy)propyl)-6-(3,5-dimethyl-1H-pyrazol-4-yl)-4-methyl-1-oxo-3,4-dihydropyrazino[1,2-a]indol-2(1H)-yl)-1,7-dimethyl-1H-indole-5-carboxylic acid] | 690 nM | 1.1 nM |  | 
Cc1cc(OCCCc2c3n(c4c(-c5c(C)nn(C)c5C)c(Cl)ccc24)[C@H](C)CN(c2cccc4c(Cl)cc(C(=O)O)nc24)C3=O)cc(C)c1Cl [Example 230, (R)-4-Chloro-8-(7-chloro-10-(3-(4-chloro-3,5-dimethylphenoxy)propyl)-4-methyl-1-oxo-6-(1,3,5-trimethyl-1H-pyrazol-4-yl)-3,4-dihydropyrazino[1,2-a]indol-2(1H)-yl)quinoline-2-carboxylic acid] | 890 nM | < 1 nM |  | 
Cc1cc(OCCCc2c3n(c4c(-c5c(C)nn(C)c5C)c(Cl)ccc24)[C@H](C)CN(c2ccc(C(=O)O)c4ccn(C)c24)C3=O)cc(C)c1Cl [Example 52, (R)-7-(7-chloro-10-(3-(4-chloro-3,5-dimethylphenoxy)propyl)-4-methyl-1-oxo-6-(1,3,5-trimethyl-1H-pyrazol-4-yl)-3,4-dihydropyrazino[1,2-a]indol-2(1H)-yl)-1-methyl-1H-indole-4-carboxylic acid] | 470 nM | < 1 nM |  | 
Cc1cc(OCCCc2c3n(c4c(-c5c(C)nn(C)c5C)c(Cl)ccc24)[C@H](C)CN(c2cccc4ccc(C(=O)O)cc24)C3=O)cc(C)c1Cl [Example 349, (M, R)-8-(7-Chloro-10-(3-(4-chloro-3,5-dimethylphenoxy)propyl)-4-methyl-1-oxo-6-(1,3,5-trimethyl-1H-pyrazol-4-yl)-3,4-dihydropyrazino[1,2-a]indol-2(1H)-yl)-2-naphthoic acid] |  | 2.8 nM | 780 nM | 
Cc1cc(OCCCc2c3n(c4c(-c5c(C)nn(C)c5C)c(Cl)ccc24)[C@H](C)CN(c2ccc4c(C(=O)O)cccc4n2)C3=O)cc(C)c1Cl [Example 157, (R)-2-(7-Chloro-10-(3-(4-chloro-3,5-dimethylphenoxy)propyl)-4-methyl-1-oxo-6-(1,3,5-trimethyl-1H-pyrazol-4-yl)-3,4-dihydropyrazino[1,2-a]indol-2(1H)-yl)quinoline-5-carboxylic acid] | 6400 nM | 2.5 nM |  | 
Cc1cc(OCCCc2c3n(c4c(-c5c(C)ncnc5C)c(Cl)ccc24)CCCN(c2ccnc4ccc(C(=O)O)cc24)C3=O)cc(C)c1Cl [Example 220, 4-[8-Chloro-11-[3-(4-chloro-3,5-dimethyl-phenoxy)propyl]-7-(4,6-dimethylpyrimidin-5-yl)-1-oxo-4,5-dihydro-3H-[1,4]diazepino[1,2-a]indol-2-yl]quinoline-6-carboxylic acid] | 2000 nM | < 1 nM |  | 
Cc1cc(OCCCc2c3n(c4c(-c5c(C)nn(C)c5C)c(Cl)ccc24)[C@H](C)CN(c2cccc4c2cc(C(=O)O)n4C)C3=O)cc(C)c1Cl [Example 113, (R)-4-(7-Chloro-10-(3-(4-chloro-3,5-dimethylphenoxy)propyl)-4-methyl-1-oxo-6-(1,3,5-trimethyl-1H-pyrazol-4-yl)-3,4-dihydropyrazino[1,2-a]indol-2(1H)-yl)-1-methyl-1H-indole-2-carboxylic acid] | 330 nM | < 1 nM |  | 
Cc1cc(OCCCc2c3n(c4c(-c5c(C)nn(C)c5C)c(Cl)ccc24)[C@H](C)CN(c2cc(OCc4ccccc4)cc4c2cc(C(=O)O)n4C)C3=O)cc(C)c1Cl [Example 297, (P, R)-6-(benzyloxy)-4-(7-chloro-10-(3-(4-chloro-3,5-dimethylphenoxy)propyl)-4-methyl-1-oxo-6-(1,3,5-trimethyl-1H-pyrazol-4-yl)-3,4-dihydropyrazino[1,2-a]indol-2(1H)-yl)-1-methyl-1H-indole-2-carboxylic acid] |  | 2.4 nM | 7900 nM | 
Cc1cc(OCCCc2c3n(c4c(-c5c(C)nn(C)c5C)c(Cl)ccc24)[C@H](C)CN(c2cccc4cc(C(=O)O)oc24)C3=O)cc(C)c1Cl [Example 194, (R)-7-(7-Chloro-10-(3-(4-chloro-3,5-dimethylphenoxy)propyl)-4-methyl-1-oxo-6-(1,3,5-trimethyl-1H-pyrazol-4-yl)-3,4-dihydropyrazino[1,2-a]indol-2(1H)-yl)benzofuran-2-carboxylic acid] | 2300 nM | < 1 nM |  | 
Cc1cc(OCCCc2c3n(c4c(-c5c(C)nc(COCc6ccccc6)nc5C)c(Cl)ccc24)CCCN(c2cn(C)c4ccc(C(=O)O)cc24)C3=O)cc(C)c1Cl [Example 294, 3-[7-[2-(benzyloxymethyl)-4,6-dimethyl-pyrimidin-5-yl]-8-chloro-11-[3-(4-chloro-3,5-dimethyl-phenoxy)propyl]-1-oxo-4,5-dihydro-3H-[1,4]diazepino[1,2-a]indol-2-yl]-1-methyl-indole-5-carboxylic acid] | 2000 nM | < 1 nM |  | 
Cc1cc(OCCCc2c3n(c4c(-c5c(C)nn(C)c5C)c(Cl)ccc24)[C@H](C)CN(c2cccc4nn(C)c(C(=O)O)c24)C3=O)cc(C)c1Cl [Example 133, 4-[(4R)-7-chloro-10-[3-(4-chloro-3,5-dimethyl-phenoxy)propyl]-4-methyl-1-oxo-6-(1,3,5-trimethylpyrazol-4-yl)-3,4-dihydropyrazino[1,2-a]indol-2-yl]-2-methyl-indazole-3-carboxylic acid] |  | < 1 nM |  | 1400 nM
Cc1cc(OCCCc2c3n(c4c(-c5c(C)nn(C)c5C)c(Cl)ccc24)[C@H](C)CN(c2cc(C(=O)O)c4cn(CCN5CCOCC5)nc4c2)C3=O)cc(C)c1Cl [Example 57, (R)-6-(7-chloro-10-(3-(4-chloro-3,5-dimethylphenoxy)propyl)-4-methyl-1-oxo-6-(1,3,5-trimethyl-1H-pyrazol-4-yl)-3,4-dihydropyrazino[1,2-a]indol-2(1H)-yl)-2-(2-morpholinoethyl)-2H-indazole-4-carboxylic acid] | 1700 nM | < 1 nM |  | 
Cc1cc(OCCCc2c3n(c4c(-c5c(C)nn(C)c5C)c(Cl)ccc24)[C@H](C)CN(c2cn(C)c4ccc(C(=O)N5CCCC5)cc24)C3=O)cc(C)c1Cl [Example 290, (4R)-7-chloro-10-[3-(4-chloro-3,5-dimethyl-phenoxy)propyl]-4-methyl-2-[1-methyl-5-(pyrrolidine-1-carbonyl)indol-3-yl]-6-(1,3,5-trimethylpyrazol-4-yl)-3,4-dihydropyrazino[1,2-a]indol-1-one] | 5300 nM | 12 nM |  | 
(R)-4-(7-chloro-10-(3-(4-chloro-3,5-dimethylphenoxy)propyl)-4-methyl-1-oxo-6-(1,3,5-trimethyl-1H-pyrazol-4-yl)-3,4-dihydropyrazino[1,2-a]indol-2(1H)-yl)-2-methyl-2H-indazole-1-carboxylic acid [Example 97] |  | < 1 nM | 3400 nM | 
Cc1cc(OCCCc2c3n(c4c(-c5c(C)nn(C)c5C)c(Cl)ccc24)[C@H](C)CN(c2cccc4ccc(C(=O)O)cc24)C3=O)cc(C)c1Cl [Example 368, (P, R)-8-(7-Chloro-10-(3-(4-chloro-3,5-dimethylphenoxy)propyl)-4-methyl-1-oxo-6-(1,3,5-trimethyl-1H-pyrazol-4-yl)-3,4-dihydropyrazino[1,2-a]indol-2(1H)-yl)-2-naphthoic acid] |  | 1.4 nM | 620 nM | 
Cc1cc(OCCCc2c3n(c4c(-c5c(C)nn(C)c5C)c(Cl)ccc24)[C@H](C)CN(c2cn(C)c4ccc(-c5nnn(C)n5)cc24)C3=O)cc(C)c1Cl [Example 350, (R)-7-Chloro-10-(3-(4-chloro-3,5-dimethylphenoxy)propyl)-4-methyl-2-(1-methyl-5-(2-methyl-2H-tetrazol-5-yl)-1H-indol-3-yl)-6-(1,3,5-trimethyl-1H-pyrazol-4-yl)-3,4-dihydropyrazino[1,2-a]indol-1(2H)-one] | 300 nM | < 1 nM |  | 
Cc1cc(OCCCc2c3n(c4c(-c5c(C)nn(C)c5C)c(Cl)ccc24)[C@H](C)CN(c2cn(C)c4ccc(C(=O)NCc5ccccn5)cc24)C3=O)cc(C)c1Cl [Example 281, 3-[(4R)-7-chloro-10-[3-(4-chloro-3,5-dimethyl-phenoxy)propyl]-4-methyl-1-oxo-6-(1,3,5-trimethylpyrazol-4-yl)-3,4-dihydropyrazino[1,2-a]indol-2-yl]-1-methyl-N-(2-pyridylmethyl)indole-5-carboxamide] | 1400 nM | 2.2 nM |  | 
Cc1cc(OCCCc2c3n(c4c(-c5c(C)nn(C)c5C)c(Cl)ccc24)[C@H](C)CN(c2cn(C)c4cc(Cl)c(C(=O)O)cc24)C3=O)cc(C)c1Cl [Example 365, (R)-6-Chloro-3-(7-chloro-10-(3-(4-chloro-3,5-dimethylphenoxy)propyl)-4-methyl-1-oxo-6-(1,3,5-trimethyl-1H-pyrazol-4-yl)-3,4-dihydropyrazino[1,2-a]indol-2(1H)-yl)-1-methyl-1H-indole-5-carboxylic acid] | 2000 nM | 1.7 nM |  | 
